Assay [1] deals with T1, MAP kinase-activated protein kinase 5 (Homo sapiens) (UniProt Q8IW41).
T1 sequence (whole entry): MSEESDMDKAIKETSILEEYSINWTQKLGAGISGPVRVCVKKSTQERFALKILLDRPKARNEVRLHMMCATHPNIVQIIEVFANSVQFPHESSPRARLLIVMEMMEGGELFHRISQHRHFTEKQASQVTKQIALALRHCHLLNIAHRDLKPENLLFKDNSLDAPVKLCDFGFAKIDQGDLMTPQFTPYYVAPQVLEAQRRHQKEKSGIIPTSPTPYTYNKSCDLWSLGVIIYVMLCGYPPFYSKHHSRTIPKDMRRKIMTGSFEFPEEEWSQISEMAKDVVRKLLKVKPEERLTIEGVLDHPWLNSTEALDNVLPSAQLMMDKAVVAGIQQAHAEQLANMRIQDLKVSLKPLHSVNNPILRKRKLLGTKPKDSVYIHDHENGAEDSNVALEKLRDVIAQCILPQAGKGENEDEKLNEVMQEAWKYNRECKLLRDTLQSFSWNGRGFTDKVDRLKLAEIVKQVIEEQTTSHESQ
Kind of assay: Inhibition of human recombinant MAPKAPK5 at 40 nM related to control ULK1.

Assay [2] deals with Mitogen-activated protein kinase 1 (Homo sapiens) (UniProt P28482). As to the kind of experiment: Inhibition of human recombinant Erk2 at 500 nM in presence of ATP by radiometric assay relative to control.
For assay [3], the target named is T2, Tyrosine-protein kinase ITK/TSK (Homo sapiens) (UniProt Q08881).
T2 sequence (whole entry): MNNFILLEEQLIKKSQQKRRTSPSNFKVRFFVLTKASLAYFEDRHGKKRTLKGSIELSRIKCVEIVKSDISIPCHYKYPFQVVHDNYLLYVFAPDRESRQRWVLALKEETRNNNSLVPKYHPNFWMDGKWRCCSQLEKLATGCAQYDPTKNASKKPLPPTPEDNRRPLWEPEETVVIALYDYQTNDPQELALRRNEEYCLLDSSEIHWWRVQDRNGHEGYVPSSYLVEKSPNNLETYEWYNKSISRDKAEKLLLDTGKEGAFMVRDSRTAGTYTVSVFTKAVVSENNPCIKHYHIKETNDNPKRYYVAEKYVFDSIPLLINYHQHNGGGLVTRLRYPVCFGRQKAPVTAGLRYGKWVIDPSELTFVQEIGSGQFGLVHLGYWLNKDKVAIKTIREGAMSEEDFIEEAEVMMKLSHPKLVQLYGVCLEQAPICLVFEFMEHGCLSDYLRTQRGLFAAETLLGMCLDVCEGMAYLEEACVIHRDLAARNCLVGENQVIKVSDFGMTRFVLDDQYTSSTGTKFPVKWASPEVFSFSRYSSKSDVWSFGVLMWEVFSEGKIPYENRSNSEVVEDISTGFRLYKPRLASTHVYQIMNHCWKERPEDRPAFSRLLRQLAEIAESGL
As to the kind of experiment: Inhibition of human recombinant ITK at 500 nM related to control ULK1.

Assay [4] concerns the target Serine/threonine-protein kinase 32A (Homo sapiens) (UniProt Q8WU08). Kind of assay: Inhibition of human recombinant YANK1 at 500 nM related to control ULK1.
The target in assay [5] is T3, Serine/threonine-protein kinase D3 (Homo sapiens) (UniProt O94806).
T3 sequence (whole entry): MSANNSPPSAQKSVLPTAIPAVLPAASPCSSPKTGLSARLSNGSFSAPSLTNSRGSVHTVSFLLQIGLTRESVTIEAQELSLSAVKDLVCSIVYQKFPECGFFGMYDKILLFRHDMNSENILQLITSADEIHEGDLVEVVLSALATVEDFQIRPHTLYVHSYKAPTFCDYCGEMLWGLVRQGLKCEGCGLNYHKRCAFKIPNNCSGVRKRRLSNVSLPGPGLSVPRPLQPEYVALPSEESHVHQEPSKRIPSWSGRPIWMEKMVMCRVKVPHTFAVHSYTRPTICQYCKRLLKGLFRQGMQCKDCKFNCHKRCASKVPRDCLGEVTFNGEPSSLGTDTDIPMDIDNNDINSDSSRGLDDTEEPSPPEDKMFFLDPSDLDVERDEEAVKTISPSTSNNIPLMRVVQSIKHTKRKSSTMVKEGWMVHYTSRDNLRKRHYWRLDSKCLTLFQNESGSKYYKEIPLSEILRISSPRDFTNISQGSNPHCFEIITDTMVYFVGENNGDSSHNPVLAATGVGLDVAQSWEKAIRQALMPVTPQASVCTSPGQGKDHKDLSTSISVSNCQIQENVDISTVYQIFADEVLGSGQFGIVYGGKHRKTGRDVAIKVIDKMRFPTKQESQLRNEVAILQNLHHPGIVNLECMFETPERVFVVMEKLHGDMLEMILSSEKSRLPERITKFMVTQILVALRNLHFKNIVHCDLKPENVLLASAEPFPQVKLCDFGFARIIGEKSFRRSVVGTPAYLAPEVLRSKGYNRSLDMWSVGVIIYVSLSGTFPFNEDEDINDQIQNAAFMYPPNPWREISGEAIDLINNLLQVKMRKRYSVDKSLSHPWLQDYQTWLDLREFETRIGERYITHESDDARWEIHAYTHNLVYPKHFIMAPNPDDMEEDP
Kind of assay: Inhibition of human recombinant PKD3 at 500 nM in presence of ATP by radiometric assay relative to control.

The target in assay [6] is Misshapen-like kinase 1 (Homo sapiens) (UniProt Q8N4C8). As to the kind of experiment: Inhibition of human recombinant MINK at 500 nM in presence of ATP by radiometric assay relative to control.
The target in assay [7] is Mitogen-activated protein kinase kinase kinase 10 (Homo sapiens) (UniProt Q02779). Kind of assay: Inhibition of human recombinant MLK2 at 15 nM in presence of ATP by radiometric assay relative to control.
Assay [8] addresses Rho-associated protein kinase 1 (Homo sapiens) (UniProt Q13464). As to the kind of experiment: Inhibition of human recombinant ROCK1 at 15 nM related to control ULK1.
Assay [9] deals with Serine/threonine-protein kinase MARK1 (Homo sapiens) (UniProt Q9P0L2). As to the kind of experiment: Inhibition of human recombinant MARK1 at 15 nM in presence of ATP by radiometric assay relative to control.
Assay [10] deals with T4, Mitogen-activated protein kinase 12 (Homo sapiens) (UniProt P53778).
T4 sequence (whole entry): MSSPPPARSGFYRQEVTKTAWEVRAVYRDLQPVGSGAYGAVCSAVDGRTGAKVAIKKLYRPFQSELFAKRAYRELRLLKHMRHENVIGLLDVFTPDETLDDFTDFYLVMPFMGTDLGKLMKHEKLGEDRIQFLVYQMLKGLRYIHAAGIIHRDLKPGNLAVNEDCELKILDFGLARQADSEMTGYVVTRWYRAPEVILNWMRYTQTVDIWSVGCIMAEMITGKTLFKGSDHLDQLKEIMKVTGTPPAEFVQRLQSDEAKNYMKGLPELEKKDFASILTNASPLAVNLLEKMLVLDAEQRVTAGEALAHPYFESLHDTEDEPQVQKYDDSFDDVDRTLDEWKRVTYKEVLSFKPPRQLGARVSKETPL
As to the kind of experiment: Inhibition of human recombinant p38gamma at 15 nM related to control ULK1.

Misshapen-like kinase 1 (Homo sapiens), sequence (Q8N4C8 whole entry, looked up): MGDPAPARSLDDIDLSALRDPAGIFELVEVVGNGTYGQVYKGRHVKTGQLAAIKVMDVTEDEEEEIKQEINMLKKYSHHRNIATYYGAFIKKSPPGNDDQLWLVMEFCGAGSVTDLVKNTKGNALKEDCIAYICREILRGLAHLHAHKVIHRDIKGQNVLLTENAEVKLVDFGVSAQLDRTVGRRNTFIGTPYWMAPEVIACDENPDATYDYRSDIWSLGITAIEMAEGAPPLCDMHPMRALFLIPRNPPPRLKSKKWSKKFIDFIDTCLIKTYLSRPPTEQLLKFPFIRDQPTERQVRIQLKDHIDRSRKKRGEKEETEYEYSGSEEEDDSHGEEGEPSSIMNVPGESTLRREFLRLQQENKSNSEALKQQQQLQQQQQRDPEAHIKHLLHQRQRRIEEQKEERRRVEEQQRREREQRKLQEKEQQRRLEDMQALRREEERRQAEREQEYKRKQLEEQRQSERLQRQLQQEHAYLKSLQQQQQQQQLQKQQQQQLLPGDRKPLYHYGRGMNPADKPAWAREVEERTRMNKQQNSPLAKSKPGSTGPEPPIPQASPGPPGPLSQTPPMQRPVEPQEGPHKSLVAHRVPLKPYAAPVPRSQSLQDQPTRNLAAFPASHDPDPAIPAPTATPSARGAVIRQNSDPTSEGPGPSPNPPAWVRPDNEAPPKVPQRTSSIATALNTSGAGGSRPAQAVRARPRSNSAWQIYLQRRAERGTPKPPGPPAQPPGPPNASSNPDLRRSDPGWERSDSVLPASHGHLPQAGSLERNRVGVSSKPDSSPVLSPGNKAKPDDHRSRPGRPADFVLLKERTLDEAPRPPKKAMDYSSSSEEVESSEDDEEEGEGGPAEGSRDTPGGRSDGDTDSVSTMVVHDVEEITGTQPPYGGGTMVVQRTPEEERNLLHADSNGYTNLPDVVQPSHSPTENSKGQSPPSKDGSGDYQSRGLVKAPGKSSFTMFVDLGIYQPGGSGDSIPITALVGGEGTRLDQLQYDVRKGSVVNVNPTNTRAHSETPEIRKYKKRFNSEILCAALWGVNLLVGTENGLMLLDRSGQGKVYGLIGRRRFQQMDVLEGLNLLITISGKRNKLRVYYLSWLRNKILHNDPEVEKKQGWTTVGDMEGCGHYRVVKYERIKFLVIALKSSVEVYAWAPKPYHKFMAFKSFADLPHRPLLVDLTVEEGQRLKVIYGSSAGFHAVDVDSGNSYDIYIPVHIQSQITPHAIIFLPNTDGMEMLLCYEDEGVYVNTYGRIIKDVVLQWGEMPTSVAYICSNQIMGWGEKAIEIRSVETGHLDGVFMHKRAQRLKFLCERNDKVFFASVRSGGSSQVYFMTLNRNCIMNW
Serine/threonine-protein kinase MARK1 (Homo sapiens), sequence (Q9P0L2 whole entry, looked up): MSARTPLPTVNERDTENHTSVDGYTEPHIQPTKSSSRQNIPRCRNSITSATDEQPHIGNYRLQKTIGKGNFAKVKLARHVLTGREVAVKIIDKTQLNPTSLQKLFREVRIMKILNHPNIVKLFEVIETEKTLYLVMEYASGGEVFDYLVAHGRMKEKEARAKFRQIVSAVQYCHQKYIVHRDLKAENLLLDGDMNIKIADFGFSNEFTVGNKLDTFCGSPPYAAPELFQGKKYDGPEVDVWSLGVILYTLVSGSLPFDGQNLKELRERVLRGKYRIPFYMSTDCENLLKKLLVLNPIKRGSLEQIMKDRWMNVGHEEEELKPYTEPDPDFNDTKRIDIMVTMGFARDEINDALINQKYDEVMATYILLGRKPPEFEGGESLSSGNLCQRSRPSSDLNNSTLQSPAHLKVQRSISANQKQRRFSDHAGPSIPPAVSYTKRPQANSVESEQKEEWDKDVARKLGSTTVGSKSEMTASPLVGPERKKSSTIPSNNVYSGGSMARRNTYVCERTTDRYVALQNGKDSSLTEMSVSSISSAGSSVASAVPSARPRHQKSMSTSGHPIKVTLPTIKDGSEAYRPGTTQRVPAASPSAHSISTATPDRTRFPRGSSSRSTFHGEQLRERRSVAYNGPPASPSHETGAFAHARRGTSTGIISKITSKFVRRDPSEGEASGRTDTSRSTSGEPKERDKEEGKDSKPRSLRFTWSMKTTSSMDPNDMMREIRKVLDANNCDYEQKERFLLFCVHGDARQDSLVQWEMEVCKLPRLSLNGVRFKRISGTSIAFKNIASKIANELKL
Rho-associated protein kinase 1 (Homo sapiens), sequence (Q13464 2-1354 limits assumed): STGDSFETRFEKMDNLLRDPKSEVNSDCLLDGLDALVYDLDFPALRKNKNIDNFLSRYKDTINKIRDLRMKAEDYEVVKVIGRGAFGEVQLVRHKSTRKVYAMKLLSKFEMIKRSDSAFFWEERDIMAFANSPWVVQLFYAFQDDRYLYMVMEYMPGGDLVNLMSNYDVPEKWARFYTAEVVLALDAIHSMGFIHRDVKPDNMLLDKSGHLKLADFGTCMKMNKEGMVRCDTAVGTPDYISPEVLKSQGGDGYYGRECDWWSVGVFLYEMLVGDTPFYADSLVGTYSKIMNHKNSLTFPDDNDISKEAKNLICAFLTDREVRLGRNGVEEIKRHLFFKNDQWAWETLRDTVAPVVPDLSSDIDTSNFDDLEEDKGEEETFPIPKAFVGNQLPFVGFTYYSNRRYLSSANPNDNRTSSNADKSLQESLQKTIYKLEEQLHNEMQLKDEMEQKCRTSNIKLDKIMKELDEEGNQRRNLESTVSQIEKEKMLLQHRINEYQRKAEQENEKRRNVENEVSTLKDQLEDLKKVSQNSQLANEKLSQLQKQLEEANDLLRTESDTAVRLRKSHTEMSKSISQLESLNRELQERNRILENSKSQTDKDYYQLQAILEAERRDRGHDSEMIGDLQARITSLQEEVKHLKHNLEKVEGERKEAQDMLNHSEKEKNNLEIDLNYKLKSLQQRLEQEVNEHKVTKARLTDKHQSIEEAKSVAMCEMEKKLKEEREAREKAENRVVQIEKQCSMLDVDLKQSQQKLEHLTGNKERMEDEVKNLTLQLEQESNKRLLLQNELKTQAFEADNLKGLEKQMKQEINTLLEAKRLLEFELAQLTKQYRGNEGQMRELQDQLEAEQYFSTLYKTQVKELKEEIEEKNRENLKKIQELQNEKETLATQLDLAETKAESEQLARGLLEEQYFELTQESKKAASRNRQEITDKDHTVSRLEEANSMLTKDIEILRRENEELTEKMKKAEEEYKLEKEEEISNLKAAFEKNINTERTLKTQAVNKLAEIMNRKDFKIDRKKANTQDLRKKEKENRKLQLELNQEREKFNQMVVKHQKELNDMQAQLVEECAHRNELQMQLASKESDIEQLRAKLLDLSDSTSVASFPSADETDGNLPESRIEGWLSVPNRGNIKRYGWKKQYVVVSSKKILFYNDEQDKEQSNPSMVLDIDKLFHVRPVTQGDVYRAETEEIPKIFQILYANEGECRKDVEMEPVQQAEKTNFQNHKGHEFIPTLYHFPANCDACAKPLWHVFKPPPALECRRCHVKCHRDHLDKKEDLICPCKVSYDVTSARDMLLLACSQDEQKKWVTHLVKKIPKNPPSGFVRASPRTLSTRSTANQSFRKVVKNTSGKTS
Mitogen-activated protein kinase 1 (Homo sapiens), sequence (P28482 whole entry): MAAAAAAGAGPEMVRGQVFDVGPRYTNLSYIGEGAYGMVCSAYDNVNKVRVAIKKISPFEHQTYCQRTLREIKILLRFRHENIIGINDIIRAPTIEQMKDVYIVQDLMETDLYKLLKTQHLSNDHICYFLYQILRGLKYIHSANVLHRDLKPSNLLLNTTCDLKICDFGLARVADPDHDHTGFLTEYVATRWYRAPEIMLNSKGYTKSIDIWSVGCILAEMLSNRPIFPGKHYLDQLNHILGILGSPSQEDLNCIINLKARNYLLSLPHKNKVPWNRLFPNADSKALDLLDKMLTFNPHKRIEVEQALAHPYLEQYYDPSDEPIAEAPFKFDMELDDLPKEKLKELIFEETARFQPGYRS
Serine/threonine-protein kinase 32A (Homo sapiens), sequence (Q8WU08 whole entry): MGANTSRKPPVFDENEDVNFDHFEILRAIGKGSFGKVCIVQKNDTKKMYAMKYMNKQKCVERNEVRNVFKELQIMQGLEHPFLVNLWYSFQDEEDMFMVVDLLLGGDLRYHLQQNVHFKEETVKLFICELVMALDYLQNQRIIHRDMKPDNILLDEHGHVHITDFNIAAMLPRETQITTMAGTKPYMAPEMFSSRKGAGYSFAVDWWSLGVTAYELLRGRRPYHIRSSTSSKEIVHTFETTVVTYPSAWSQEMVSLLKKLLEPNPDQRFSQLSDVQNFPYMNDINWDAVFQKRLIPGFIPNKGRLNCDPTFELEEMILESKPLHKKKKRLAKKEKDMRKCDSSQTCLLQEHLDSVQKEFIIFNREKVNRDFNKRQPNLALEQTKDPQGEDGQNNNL

Regarding `O=C(N[C@@H](C1CC1)C(F)(F)F)c1cc(-c2cnn3cc(-c4ccc(F)cc4)cnc23)cs1`, the fold change (FC) in [1] came to 0.

The inhibition is the percentage by which the read-out fell short of the control. For the compound `CNC(=O)c1ccccc1Oc1nc(Nc2cc(OC)c(OC)c(OC)c2)ncc1Br`, the inhibition was 0% in assay [2], 0% in assay [5] and 4% in assay [6]. Besides, the results for the fold change (FC) in [3] and in assay [4] were 0.01 and 0, respectively.

Take `CC(C)[C@H](NC(=O)c1cc(-c2cnn3cc(-c4ccc(OCCN5CCCCC5)cc4)cnc23)cs1)C(F)(F)F`: the results for the inhibition in assay [7] and in assay [9] were 12% and 54%, respectively. Besides, the results for the fold change (FC) in [8] and in [10] were 0.09 and 0.06, respectively.
